“And” between values parts separate entries of the source, which are not always exact repeats. Identical values can stand only once.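 Grown in 96-well plates, cells were treated for 48 hours with each compound at five concentrations. Insufficient inhibition: endpoint recorded as highest concentration tested. GI50 is the concentration that inhibits growth by half.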 The source made the active and inactive calls. Rule as the data show it: active = GI50 up to about 1.1 µM and inactive = higher.
How the values were obtained:
Assay in all cases: NCI anticancer screen, dose series, 48 h
TK-10 = system: TK-10
SK-MEL-2 = system: SK-MEL-2
OVCAR-5 = system: OVCAR-5
DU-145 = system: DU-145
K562 = system: K562
COLO 205 = system: COLO 205
OVCAR-3 = system: OVCAR-3
RXF 393 = system: RXF 393
NCI-H522 = system: NCI-H522
OVCAR-8 = system: OVCAR-8
SK-OV-3 = system: SK-OV-3
SW-620 = system: SW-620
MDA-MB-435 = system: MDA-MB-435
U-251 = system: U-251
SK-MEL-28 = system: SK-MEL-28
HCT-15 = system: HCT-15
786-0 = system: 786-0
SN12C = system: SN12C
CAKI-1 = system: CAKI-1
RPMI-8226 = system: RPMI-8226
NCI/ADR-RES = system: NCI/ADR-RES
ACHN = system: ACHN
MCF7 = system: MCF7
A498 = system: A498
SF-539 = system: SF-539
SF-295 = system: SF-295
HT-29 = system: HT-29
HOP-62 = system: HOP-62
A549 = system: A549
T47D = system: T47D
Malme-3M = system: Malme-3M
MDA-N = system: MDA-N
NCI-H23 = system: NCI-H23
UACC-62 = system: UACC-62
UO-31 = system: UO-31
SNB-19 = system: SNB-19
SK-MEL-5 = system: SK-MEL-5
OVCAR-4 = system: OVCAR-4
HOP-92 = system: HOP-92
MDA-MB-231 = system: MDA-MB-231
MOLT-4 = system: MOLT-4
NCI-H460 = system: NCI-H460
HCT-116 = system: HCT-116
M14 = system: M14
SF-268 = system: SF-268
HCC 2998 = system: HCC 2998
PC-3 = system: PC-3
KM12 = system: KM12
SR = system: SR
EKVX = system: EKVX
BT-549 = system: BT-549
IGROV-1 = system: IGROV-1
NCI-H226 = system: NCI-H226
UACC-257 = system: UACC-257
SNB-75 = system: SNB-75
HL-60 = system: HL-60
CCRF-CEM = system: CCRF-CEM
LOX IMVI = system: LOX IMVI

Measured: GI50

CC(=O)c1cc2sc3ccccc3c2[nH]1
inactive: TK-10 > 100 µM | SK-MEL-2 > 100 µM | OVCAR-5 > 100 µM | DU-145 > 100 µM | K562 > 100 µM | COLO 205 > 100 µM | OVCAR-3 > 100 µM | RXF 393 > 100 µM | NCI-H522 > 100 µM | OVCAR-8 61.2 µM | SK-OV-3 > 100 µM | SW-620 > 100 µM | MDA-MB-435 > 100 µM | U-251 > 100 µM | SK-MEL-28 > 100 µM | 786-0 > 100 µM | SN12C > 100 µM | CAKI-1 > 100 µM | RPMI-8226 16.3 µM | NCI/ADR-RES > 100 µM | ACHN > 100 µM | MCF7 > 100 µM | A498 > 100 µM | SF-539 > 100 µM | SF-295 > 100 µM | HT-29 > 100 µM | HOP-62 > 100 µM | A549 > 100 µM | T47D > 100 µM | Malme-3M > 100 µM | MDA-N > 100 µM | NCI-H23 > 100 µM | UACC-62 26.7 µM | UO-31 56.4 µM | SNB-19 > 100 µM | SK-MEL-5 > 100 µM | OVCAR-4 > 100 µM | HOP-92 > 100 µM | MDA-MB-231 > 100 µM | MOLT-4 > 100 µM | NCI-H460 > 100 µM | HCT-116 > 100 µM | M14 > 100 µM | SF-268 > 100 µM | HCC 2998 > 100 µM | PC-3 > 100 µM | KM12 > 100 µM
> 100 µM: HCT-15

O=C1N/C(=N/N=C\C(O)C(O)C(O)C(O)CO)N/C1=C/c1ccccc1 (configuration not stated)
inactive: NCI/ADR-RES > 100 µM and 67 µM | UACC-62 > 100 µM

N#C/C(=C\c1cc(Br)c(O)c(Br)c1)c1ccccn1
inactive: TK-10 80.2 µM | SR > 100 µM | EKVX 26.7 µM | SK-MEL-2 47.9 µM | BT-549 30.2 µM | OVCAR-5 51.4 µM | DU-145 > 100 µM | K562 34.6 µM | COLO 205 52.4 µM | OVCAR-3 49.3 µM | RXF 393 91.4 µM | NCI-H522 64.9 µM | OVCAR-8 94.8 µM | SK-OV-3 32.5 µM | IGROV-1 > 100 µM | SW-620 63.5 µM | U-251 22.9 µM | SK-MEL-28 82 µM | 786-0 49.5 µM | NCI-H226 30.4 µM | SN12C 46.7 µM | CAKI-1 > 100 µM | RPMI-8226 73.5 µM | NCI/ADR-RES 43 µM | ACHN 90.6 µM | MCF7 89.3 µM | SF-539 84.7 µM | SF-295 16 µM | UACC-257 35.4 µM | HT-29 59 µM | HOP-62 53.2 µM | A549 59.6 µM | Malme-3M 23.6 µM | SNB-75 > 100 µM | MDA-N > 100 µM | HL-60 > 100 µM | NCI-H23 44 µM | UACC-62 37.1 µM | UO-31 35.9 µM | SNB-19 46.1 µM | SK-MEL-5 41 µM | OVCAR-4 61 µM | HOP-92 14.5 µM | MOLT-4 32.5 µM | NCI-H460 48.6 µM | HCT-116 > 100 µM | M14 72.8 µM | CCRF-CEM 34.1 µM | SF-268 93.8 µM | HCC 2998 42.9 µM | PC-3 29.1 µM | KM12 39.1 µM
41.2 µM: HCT-15

COc1cc(NC(C)=O)ccc1C(=O)NN1C(=O)C(Cl)C1c1ccco1 (configuration not stated)
> 100 µM: HCT-15
inactive: SR 36.6 µM | EKVX > 100 µM | SK-MEL-2 > 100 µM | BT-549 > 100 µM | OVCAR-5 > 100 µM | DU-145 > 100 µM | K562 > 100 µM | COLO 205 61.8 µM | OVCAR-3 > 100 µM | RXF 393 > 100 µM | NCI-H522 > 100 µM | OVCAR-8 87.3 µM | IGROV-1 80.5 µM | SW-620 > 100 µM | MDA-MB-435 > 100 µM | SK-MEL-28 > 100 µM | 786-0 > 100 µM | NCI-H226 44.7 µM | SN12C > 100 µM | CAKI-1 88.9 µM | RPMI-8226 > 100 µM | NCI/ADR-RES > 100 µM | ACHN 86.3 µM | MCF7 58.3 µM | A498 > 100 µM | SF-539 > 100 µM | HT-29 > 100 µM | A549 92.5 µM | T47D > 100 µM | Malme-3M > 100 µM | SNB-75 > 100 µM | MDA-N > 100 µM | HL-60 41.7 µM | NCI-H23 > 100 µM | UACC-62 > 100 µM | UO-31 > 100 µM | LOX IMVI 75.2 µM | SNB-19 > 100 µM | SK-MEL-5 76.4 µM | OVCAR-4 > 100 µM | HOP-92 > 100 µM | MOLT-4 31.9 µM | HCT-116 > 100 µM | M14 > 100 µM | CCRF-CEM 65.3 µM | SF-268 > 100 µM | PC-3 > 100 µM | KM12 > 100 µM

Reference: ChEMBL document CHEMBL1201862, “PubChem BioAssay data set” (2004)
